These results are taken from patent US5294718A, “Piperidino-3,4-dihydrocarbostyril compounds” (Kissei Pharmaceutical Co., Ltd., priority 1993, dated 1994).

In this experiment the test system is Adenosine Diphosphate (ADP)-Induced Platelet Aggregation. The experiment can be described thus: Inhibitory Effect on Adenosine Diphosphate (ADP)-Induced Platelet Aggregation (turbidimetric method, platelet rich plasma). It counts as cell-based, Japanese White rabbit. The following applies: Oryctolagus cuniculus; rabbit platelet rich plasma; aggregation induced by 20 μM ADP; read-out: concentration at which the compound inhibited 50% of platelet aggregation (IC50). Here is the method: Platelet rich plasma (PRP) was prepared from Japanese White rabbit blood drawn from the carotid artery into a syringe containing 3.8% sodium citrate (1/10) volume, and centrifuged at 400×g for 10 min. Platelet aggregation in PRP was induced by 20 μM ADP and determined by the turbidimetric method using an aggregomater (Hema-Tracer: Niko Bioscience Co., Ltd., Japan).

As for `O=C1CCc2cc(N3CCC(O)CC3)c([N+](=O)[O-])cc2N1` [Compound 1, 6-(4-Hydroxypiperidino)-7-nitro-3,4-dihydrocarbostyril], the IC50 was found to be 37 µM.

As to `O=C1CCc2c(ccc(N3CCC(O)CC3)c2[N+](=O)[O-])N1` [Compound 2, 6-(4-Hydroxypiperidino)-5-nitro-3,4-dihydrocarbostyril], the IC50 was 55 µM.

With `O=C1CCc2cc(N3CCC(O)CC3)c(Br)cc2N1` [Compound 3, 7-Bromo-6-(4-hydroxypiperidino)-3,4-dihydrocarbostyril], the IC50 is 26 µM.

On to `O=C1CCc2c(ccc(N3CCC(O)CC3)c2Br)N1` [Compound 4, 5-Bromo-6-(4-hydroxypiperidino)-3,4-dihydrocarbostyril], for which the IC50 was found to be 140 µM.

As to `O=C1CCc2cc(N3CCC(O)CC3)c(Cl)cc2N1` [Compound 5, 7-Chloro-6-(4-hydroxypiperidino)-3,4-dihydrocarbostyril], the IC50 stood at 26 µM.

Consider `O=C1CCc2c(ccc(N3CCC(O)CC3)c2Cl)N1` [Compound 6, 5-Chloro-6-(4-hydroxypiperidino)-3,4-dihydrocarbostyril], for which the IC50 was 290 µM.

On to `N#Cc1cc2c(cc1N1CCC(O)CC1)CCC(=O)N2` [Compound 7, 7-Cyano-6-(4-hydroxypiperidino)-3,4-dihydrocarbostyril], for which the IC50 came out at 18 µM.

Regarding `COC(=O)c1cc2c(cc1N1CCC(O)CC1)CCC(=O)N2` [Compound 8, 6-(4-Hydroxypiperidino)-7-methoxycarbonyl-3,4-dihydrocarbostyril], the IC50 came to 42 µM.

Take `Cc1cc2c(cc1N1CCC(O)CC1)CCC(=O)N2` [Compound 9, 6-(4-Hydroxypiperidino)-7-methyl-3,4-dihydrocarbostyril]: the IC50 is 130 µM.

As to `O=C1CCc2cc(N3CCC(O)CC3)c(F)cc2N1` [Compound 10, 7-Fluoro-6-(4-hydroxypiperidino)-3,4-dihydrocarbostyril], the IC50 was 51 µM.

For `CCC(=O)OC1CCN(c2cc3c(cc2[N+](=O)[O-])NC(=O)CC3)CC1` [Compound 11, 6-(4-Propionyloxypiperidino)-7-nitro-3,4-dihydrocabostyril], the IC50 was determined as 37 µM.

Turning to `O=C1CCc2cc(N3CCC(O)CC3)c(C(F)(F)F)cc2N1` [Compound 12, 6-(4-Hydroxypiperidino)-7-trifluoromethyl-3,4-dihydrocarbostyril], the IC50 is 39 µM.
